{"source": "patent US20080177220A1", "about": "“Ultrasound-Mediated Transcleral Drug Delivery” (THE CURATORS OF THE UNIVERSITY OF MISSOURI, priority 2006, published 2008)", "key": {"[1]": {"test": "Diffusion of Sodium Fluorescein formulation across Cellu-Por synthetic membrane simulating ocular tissue, with or without ultrasound", "format": "in vitro ADME", "settings": "ultrasound applied concurrently during application of the formulation, FIG. 3", "from_the_text": "The control results 302 display the effect of allowing the formulation to diffuse naturally, while the ultrasound results 304 display the effect of applying ultrasound concurrently during application of the formulation."}, "[2]": {"test": "Diffusion of Sodium Fluorescein formulation through RCS tissue in a Franz diffusion cell at different ultrasound standoff distances", "format": "in vitro ADME, New Zealand albino rabbits", "settings": "treat far, 1.00±0.01 cm standoff distance, versus 0.50±0.01 cm (treat near) / control without ultrasound, rabbit RCS tissue, FIG. 4", "from_the_text": "By using a standoff distance 136, drug transport can be optimized. A standoff distance is desired to optimize the cavitation effects in the Fraunhofer zone of the ultrasonic energy field. […] The control results 402 represent normal diffusion action of the formulation in the absence of ultrasound. The treat near results 404 represent diffusion of the formulation achieved using a 0.50±0.01 cm standoff distance. The treat far results 406 represent diffusion of the formulation achieved using a 1.00±0.01 cm standoff distance. […] The optimum standoff distance can vary depending on a number of factors, such as, for example, the coupling media, the transducer configuration, the targeted tissue, and the pharmaceutical formulation being administered. The optimum standoff distance for transcleral drug delivery differs from drug delivery attempted through the cornea due to the numerous factors discussed above, including inherent tissue differences and transport phenomena occurring in the blood-retina barrier."}}}
{"smiles": "O=C([O-])c1ccccc1-c1c2ccc(=O)cc-2oc2cc([O-])ccc12.[Na+].[Na+]", "note": "[Sodium Fluorescein]", "values": [{"measurement": "permeability with ultrasonic waves versus control (natural diffusion)", "setting": "[1]", "result": "substantially higher"}, {"measurement": "permeability increase using the greater standoff distance", "setting": "[2]", "result": "approximately 30 times higher"}]}
